From PubChem BioAssay (NCI)
“And” between values parts separate entries of the source, which are not always exact repeats. Equal entries are not always repeated.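 Cells were grown in 96-well plates and exposed to each compound for 48 hours at five concentrations; endpoints were interpolated linearly between bracketing concentrations, or set to the highest concentration if not reached. At the GI50, growth is halved. The concentration for full growth arrest is given as TGI.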

Columns and labels:
Assay in all cases: DTP human tumour cell line panel, 48 h
SW-620 colon = tested on: SW-620 colon
NCI-H460 lung = tested on: NCI-H460 lung
UO-31 renal = tested on: UO-31 renal
NCI-H522 lung = tested on: NCI-H522 lung
HOP-62 NSCLC = tested on: HOP-62 NSCLC
SK-MEL-5 melanoma = tested on: SK-MEL-5 melanoma
MDA-MB-435 = tested on: MDA-MB-435
HOP-92 NSCLC = tested on: HOP-92 NSCLC
OVCAR-5 ovarian = tested on: OVCAR-5 ovarian
IGROV1 ovarian = tested on: IGROV1 ovarian

SMILES	GI50 (SW-620 colon) [µM]	TGI (SW-620 colon) [µM]	GI50 (NCI-H460 lung) [µM]	TGI (NCI-H460 lung) [µM]	GI50 (UO-31 renal) [nM]	TGI (UO-31 renal) [µM]	GI50 (NCI-H522 lung) [µM]	TGI (NCI-H522 lung) [µM]	GI50 (HOP-62 NSCLC) [µM]	TGI (HOP-62 NSCLC) [µM]	GI50 (SK-MEL-5 melanoma) [µM]	TGI (SK-MEL-5 melanoma) [µM]	GI50 (MDA-MB-435) [µM]	TGI (MDA-MB-435) [µM]	GI50 (HOP-92 NSCLC) [µM]	TGI (HOP-92 NSCLC) [µM]	GI50 (OVCAR-5 ovarian)	TGI (OVCAR-5 ovarian) [µM]	TGI (IGROV1 ovarian) [µM]	GI50 (IGROV1 ovarian) [µM]
CC(/C=N/N=C(N)N)=N\N=C(N)N	15	2070	26.3	201	11000	552	25.1	248	14.8	46.9	> 79.5	604	23	452	54.4	62.5	41 µM and 19.4 µM	347	1640	–
CCCN1CCC=C(c2ccc(Nc3nc(Nc4ccccc4C(N)=O)c4cc[nH]c4n3)c(C)c2)C1	1.48	> 25	2.46	> 25	2980	> 25	8.66	> 25	> 20	> 25	13.2	> 25	3.15	> 25	0.158	2.04	4.01 µM	> 25	> 25	8.29
COc1cc(Cn2c(-c3ccccc3)cc3c2-c2oncc2CC3)cc(OC)c1	0.36	> 100	0.333	5.32	665	> 100	0.0891	1.98	0.521	> 100	0.372	2.02	0.0815	0.34	4.11	> 100	0.551 µM	> 100	> 100	0.399
N#C/C(=C\c1ccc2[nH]ccc2c1)C(=O)c1ccc(O)c(O)c1	–	> 100	–	> 100	–	> 100	–	> 100	–	> 100	–	> 100	–	> 100	–	> 100	–	> 100	> 100	–
NS(=O)(=O)c1ccc(NC(=O)c2cccc(NC3=C(Cl)C(=O)N(Cc4ccccc4)C3=O)c2)cc1	6.1	44.4	10.5	25.6	2270	6.4	12.1	30.9	31.5	> 100	7.87	24.1	8.63	24.1	8.09	31.1	–	–	19.2	4.78
CN(C(=O)CNC(=O)/C=C/c1cccc(Cl)c1)C1CCS(=O)(=O)CC1	3.51	> 100	13.9	> 100	47000	> 100	1.17	> 100	11	> 100	–	–	2.1	> 100	> 100	> 100	8.5 µM	> 100	> 100	3.05
